Experiments:
Assay in all cases: relative viability (nuclei count vs DMSO), 5 days (fraction); higher = more cells survive
MK-2206 + Dasatinib = compound: NC1(c2ccc(-c3nc4ccn5c(=O)[nH]nc5c4cc3-c3ccccc3)cc2)CCC1 [MK-2206] + Cc1nc(Nc2ncc(C(=O)Nc3c(C)cccc3Cl)s2)cc(N2CCN(CCO)CC2)n1 [Dasatinib] (partner 0.075 µM)
Summary of the method: (§1)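 Relative viability divides the nuclei count in treated wells by that in vehicle wells. Lung cancer cell lines were seeded in 1536-well plates, dosed by pin tool the next day, and fixed and stained after 5 days in one step with final 0.05% Triton X-100, 1% formaldehyde and 1 ug/ml Hoechst. Dosing was a single drug or a fixed anchor-drug dose plus five library-drug doses (not always all listed) in √10 steps, and values are medians of duplicate plates imaged at 4×.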

Pictilisib + OSI-027 = compound: CS(=O)(=O)N1CCN(Cc2cc3nc(-c4cccc5[nH]ncc45)nc(N4CCOCC4)c3s2)CC1 [Pictilisib] + COc1cccc2cc(-c3nc([C@H]4CC[C@H](C(=O)O)CC4)n4ncnc(N)c34)[nH]c12 [OSI-027] (partner 0.5 µM)
Summary of the method: as §1

MK-2206 + Foretinib = compound: NC1(c2ccc(-c3nc4ccn5c(=O)[nH]nc5c4cc3-c3ccccc3)cc2)CCC1 [MK-2206] + COc1cc2c(Oc3ccc(NC(=O)C4(C(=O)Nc5ccc(F)cc5)CC4)cc3F)ccnc2cc1OCCCN1CCOCC1 [Foretinib] (partner 0.25 µM)
Summary of the method: as §1

MK-2206 + Alpelisib = compound: NC1(c2ccc(-c3nc4ccn5c(=O)[nH]nc5c4cc3-c3ccccc3)cc2)CCC1 [MK-2206] + Cc1nc(NC(=O)N2CCC[C@H]2C(N)=O)sc1-c1ccnc(C(C)(C)C(F)(F)F)c1 [Alpelisib] (partner 2 µM)
Summary of the method: as §1

| Cell Line | relative viability (MK-2206 + Dasatinib; first compound 0.01 µM) | relative viability (MK-2206 + Dasatinib; first compound 0.03162 µM) | relative viability (MK-2206 + Dasatinib; first compound 0.3162 µM) | relative viability (MK-2206 + Dasatinib; first compound 1 µM) | relative viability (Pictilisib + OSI-027; first compound 0.02 µM) | relative viability (Pictilisib + OSI-027; first compound 0.06325 µM) | relative viability (Pictilisib + OSI-027; first compound 0.6325 µM) | relative viability (Pictilisib + OSI-027; first compound 2 µM) | relative viability (MK-2206 + Foretinib; first compound 0.01 µM) | relative viability (MK-2206 + Foretinib; first compound 0.03162 µM) | relative viability (MK-2206 + Foretinib; first compound 0.3162 µM) | relative viability (MK-2206 + Foretinib; first compound 1 µM) | relative viability (MK-2206 + Alpelisib; first compound 0.01 µM) | relative viability (MK-2206 + Alpelisib; first compound 0.03162 µM) | relative viability (MK-2206 + Alpelisib; first compound 0.3162 µM) | relative viability (MK-2206 + Alpelisib; first compound 1 µM) |
| --- | --- | --- | --- | --- | --- | --- | --- | --- | --- | --- | --- | --- | --- | --- | --- | --- |
| NCI-H358 | 0.169 | 0.167 | 0.15 | 0.147 | 0.684 | 0.664 | 0.357 | 0.127 | 0.767 | 0.841 | 0.661 | 0.685 | 0.9 | 0.837 | 0.65 | 0.563 |
| NCI-H2126 | 0.686 | 0.625 | 0.5 | 0.476 | 0.706 | 0.75 | 0.541 | 0.427 | 1.14 | 1.17 | 1.18 | 1.13 | 0.719 | 0.707 | 0.678 | 0.621 |
| NCI-H1437 | 0.425 | 0.424 | 0.412 | 0.398 | 0.855 | 0.685 | 0.619 | 0.289 | 1.19 | 1.27 | 1.35 | 1.35 | 0.983 | 0.979 | 0.764 | 0.83 |
| SK-LU-1 | 0.196 | 0.19 | 0.198 | 0.151 | 0.38 | 0.335 | 0.185 | 0.19 | 0.844 | 0.776 | 0.814 | 0.791 | 1.13 | 0.979 | 0.993 | 0.876 |
| NCI-H838 | 0.282 | 0.279 | 0.288 | 0.268 | 0.328 | 0.308 | 0.242 | 0.189 | 0.956 | 1.08 | 0.962 | 0.908 | 1.02 | 1.02 | 1.01 | 0.943 |
| NCI-H1755 | 0.443 | 0.424 | 0.406 | 0.35 | 0.684 | 0.666 | 0.41 | 0.279 | 0.929 | 0.986 | 0.816 | 0.823 | 0.919 | 0.93 | 0.881 | 0.863 |
| NCI-H2228 | 0.533 | 0.485 | 0.355 | 0.266 | 0.587 | 0.431 | 0.283 | 0.155 | 0.761 | 0.811 | 0.614 | 0.467 | 0.625 | 0.621 | 0.288 | 0.262 |
| NCI-H1915 | 0.348 | 0.329 | 0.348 | 0.271 | 0.618 | 0.616 | 0.639 | 0.533 | 1.08 | 1.16 | 1.07 | 1.05 | 1.05 | 1.1 | 1.04 | 1.08 |
| NCI-H2347 | 0.381 | 0.315 | 0.281 | 0.254 | 0.458 | 0.213 | 0.286 | 0.217 | 0.877 | 0.818 | 1.15 | 0.723 | 0.967 | 1.11 | 1.11 | 0.973 |
| HARA | 0.321 | 0.302 | 0.329 | 0.227 | 0.477 | 0.507 | 0.202 | 0.133 | 0.944 | 0.951 | 0.929 | 0.809 | 0.789 | 0.745 | 0.611 | 0.582 |
| NCI-H2085 | 0.257 | 0.234 | 0.253 | 0.242 | 0.706 | 0.802 | 0.303 | 0.284 | 0.921 | 1.07 | 1 | 0.735 | 0.928 | 0.914 | 0.807 | 0.702 |
| NCI-H650 | 0.448 | 0.442 | 0.453 | 0.326 | 0.563 | 0.555 | 0.425 | 0.321 | 0.935 | 1.13 | 1.05 | 1.13 | 1.09 | 1.15 | 1.11 | 0.983 |
| NCI-H727 | 0.408 | 0.328 | 0.394 | 0.433 | 0.741 | 0.649 | 0.548 | 0.333 | 1.12 | 0.889 | 0.838 | 0.942 | 0.636 | 0.571 | 0.404 | 0.456 |
| NCI-H1993 | 0.29 | 0.524 | 0.556 | 0.51 | 0.514 | 0.47 | 0.592 | 0.646 | 0.761 | 0.773 | 0.665 | 0.57 | 0.73 | 0.668 | 0.663 | 0.652 |
| EMC-BAC-2 | 0.266 | 0.334 | 0.335 | 0.312 | 0.378 | 0.364 | 0.26 | 0.245 | 1.06 | 1.01 | 0.905 | 0.885 | 0.768 | 0.764 | 0.729 | 0.693 |
| NCI-H1563 | 0.492 | 0.449 | 0.406 | 0.407 | 0.737 | 0.713 | 0.554 | 0.57 | 0.882 | 0.988 | 0.832 | 0.769 | 0.934 | 0.764 | 0.695 | 0.656 |
| NCI-H2087 | 0.71 | 0.962 | 0.918 | 0.775 | 0.503 | 0.446 | 0.32 | 0.237 | 1.11 | 1.1 | 1.17 | 1.08 | 1.17 | 1.03 | 1.12 | 1.1 |
| NCI-H441 | 0.566 | 0.503 | 0.501 | 0.422 | 0.486 | 0.552 | 0.38 | 0.307 | 0.923 | 1.03 | 0.59 | 0.822 | 0.697 | 0.742 | 0.453 | 0.661 |
| LXF-289 | 0.212 | 0.251 | 0.254 | 0.203 | 0.817 | 0.827 | 0.566 | 0.397 | 0.932 | 0.941 | 1.01 | 1.05 | 1.06 | 1.09 | 1.02 | 1 |

Source: the supplement of paper PMC10307832
